Experimental data as given in the NIST ThermoML archive (doi:10.1016/j.fluid.2015.05.026).
Where “and” joins values, the source holds several entries; their conditions need not be identical. Equal values may be shown once. ± gives the expanded uncertainty stated by the source.

Legend:
[1] = Liquid, Closed cell (Static) method
[2] = molar heat capacity at constant pressure; settings: 101.33 kPa, Liquid, Large sample (1 g) DSC

C=CC(O)CCC (configuration not stated) [1-hexen-3-ol]
Settings | molar heat capacity at constant pressure [J/K/mol] | vapor or sublimation pressure
[1], 238.2 K | – | 0.001239 ± 0.00015 kPa and 0.001245 ± 0.00015 kPa and 0.001252 ± 0.00015 kPa
[1], 243.15 K | – | 0.002307 ± 0.00017 kPa and 0.002309 ± 0.00017 kPa and 0.00231 ± 0.00017 kPa
[1], 248.15 K | – | 0.004181 ± 0.00022 kPa
[1], 248.2 K | – | 0.004188 ± 0.00022 kPa and 0.004193 ± 0.00022 kPa
[1], 253.15 K | – | 0.007373 ± 0.00033 kPa and 0.007376 ± 0.00033 kPa
[1], 258.15 K | – | 0.01269 ± 0.00052 kPa and 0.0127 ± 0.0005 kPa and 0.01271 ± 0.00052 kPa
[1], 263.15 K | – | 0.0214 ± 0.0007 kPa and 0.02141 ± 0.00067 kPa
[1], 268.15 K | – | 0.03517 ± 0.00091 kPa and 0.03518 ± 0.00091 kPa
[1], 273.15 K | – | 0.05668 ± 0.0013 kPa and 0.05669 ± 0.0013 kPa and 0.05671 ± 0.0013 kPa
[1], 278.15 K | – | 0.08933 ± 0.0019 kPa and 0.08939 ± 0.0019 kPa
[1], 283.15 K | – | 0.1383 ± 0.0025 kPa and 0.1384 ± 0.0025 kPa
[1], 288.15 K | – | 0.2097 ± 0.0033 kPa and 0.2098 ± 0.0033 kPa
[1], 293.15 K | – | 0.3122 ± 0.0046 kPa and 0.3123 ± 0.0046 kPa
[1], 298.15 K | – | 0.4574 ± 0.0064 kPa and 0.4576 ± 0.0064 kPa
[1], 303.15 K | – | 0.6587 ± 0.0089 kPa and 0.6589 ± 0.0089 kPa
[1], 308.15 K | – | 0.9353 ± 0.012 kPa and 0.9355 ± 0.012 kPa
[2], 265 K | 235.9 ± 5.8 | –
[2], 270 K | 241 ± 5.9 | –
[2], 275 K | 246 ± 6 | –
[2], 280 K | 250.8 ± 6.1 | –
[2], 285 K | 255.5 ± 6.3 | –
[2], 290 K | 260.1 ± 6.4 | –
[2], 295 K | 264.8 ± 6.5 | –
[2], 300 K | 269.3 ± 6.6 | –
[2], 305 K | 273.6 ± 6.7 | –
[2], 310 K | 277.6 ± 6.8 | –
[2], 315 K | 281.6 ± 6.9 | –
[2], 320 K | 285.4 ± 7 | –
[2], 325 K | 289.1 ± 7.1 | –
[2], 330 K | 292.5 ± 7.2 | –
[2], 335 K | 295.4 ± 7.2 | –
[2], 340 K | 298.2 ± 7.3 | –
[2], 345 K | 301.2 ± 7.4 | –
[2], 350 K | 303.8 ± 7.4 | –
[2], 354.7 K | 305.5 ± 7.5 | –

CCC/C=C/CO [(E)-2-hexen-1-ol]
Settings | molar heat capacity at constant pressure [J/K/mol] | vapor or sublimation pressure
[1], 238.15 K | – | 0.000207 ± 0.00013 kPa and 0.00021 ± 0.00013 kPa and 0.000211 ± 0.00013 kPa
[1], 243.15 K | – | 0.000404 ± 0.00013 kPa and 0.000406 ± 0.00013 kPa and 0.000407 ± 0.00013 kPa
[1], 248.15 K | – | 0.000768 ± 0.00014 kPa and 0.000772 ± 0.00014 kPa
[1], 253.15 K | – | 0.001399 ± 0.00015 kPa and 0.001397 ± 0.00015 kPa
[1], 258.15 K | – | 0.002485 ± 0.00018 kPa and 0.002492 ± 0.00018 kPa and 0.002493 ± 0.00018 kPa
[1], 263.15 K | – | 0.004314 ± 0.00023 kPa and 0.004317 ± 0.00023 kPa and 0.004318 ± 0.00023 kPa
[1], 268.15 K | – | 0.007304 ± 0.00033 kPa and 0.00731 ± 0.00033 kPa and 0.007315 ± 0.00033 kPa
[1], 273.15 K | – | 0.01214 ± 0.0005 kPa
[1], 273.65 K | – | 0.01275 ± 0.00052 kPa and 0.01276 ± 0.00052 kPa
[1], 278.15 K | – | 0.01974 ± 0.00065 kPa and 0.01975 ± 0.00065 kPa
[1], 283.15 K | – | 0.03147 ± 0.00086 kPa and 0.03148 ± 0.00086 kPa
[1], 288.15 K | – | 0.04923 ± 0.0012 kPa and 0.04926 ± 0.0012 kPa and 0.04927 ± 0.0012 kPa
[1], 293.15 K | – | 0.07568 ± 0.0017 kPa and 0.07569 ± 0.0017 kPa
[1], 298.15 K | – | 0.1143 ± 0.0024 kPa
[1], 303.15 K | – | 0.1699 ± 0.0029 kPa
[1], 308.15 K | – | 0.2483 ± 0.004 kPa and 0.2484 ± 0.004 kPa
[2], 265 K | 211.9 ± 5.2 | –
[2], 270 K | 215.1 ± 5.3 | –
[2], 275 K | 218.4 ± 5.4 | –
[2], 280 K | 221.9 ± 5.4 | –
[2], 285 K | 225.4 ± 5.5 | –
[2], 290 K | 229.2 ± 5.6 | –
[2], 295 K | 233.3 ± 5.7 | –
[2], 300 K | 237.2 ± 5.8 | –
[2], 305 K | 241.3 ± 5.9 | –
[2], 310 K | 245.3 ± 6 | –
[2], 315 K | 249.5 ± 6.1 | –
[2], 320 K | 253.6 ± 6.2 | –
[2], 325 K | 257.8 ± 6.3 | –
[2], 330 K | 261.9 ± 6.4 | –
[2], 335 K | 265.6 ± 6.5 | –
[2], 340 K | 269.5 ± 6.6 | –
[2], 345 K | 273.3 ± 6.7 | –
[2], 350 K | 276.9 ± 6.8 | –
[2], 355 K | 280.1 ± 6.9 | –

CC/C=C\CCO [(Z)-3-hexen-1-ol]
Settings | molar heat capacity at constant pressure [J/K/mol] | vapor or sublimation pressure
[1], 238.15 K | – | 0.000301 ± 0.00013 kPa and 0.000303 ± 0.00013 kPa and 0.000304 ± 0.00013 kPa
[1], 243.15 K | – | 0.000577 ± 0.00014 kPa and 0.000579 ± 0.00014 kPa and 0.00058 ± 0.00014 kPa
[1], 248.15 K | – | 0.001062 ± 0.00014 kPa and 0.001066 ± 0.00014 kPa and 0.001069 ± 0.00014 kPa
[1], 253.15 K | – | 0.001923 ± 0.00016 kPa and 0.001926 ± 0.00016 kPa and 0.001921 ± 0.00016 kPa
[1], 258.15 K | – | 0.003383 ± 0.0002 kPa and 0.003393 ± 0.0002 kPa and 0.003395 ± 0.0002 kPa
[1], 263.15 K | – | 0.005802 ± 0.00028 kPa and 0.005803 ± 0.00028 kPa and 0.005805 ± 0.00028 kPa
[1], 268.15 K | – | 0.009727 ± 0.00041 kPa and 0.009728 ± 0.00041 kPa and 0.009737 ± 0.00041 kPa
[1], 273.65 K | – | 0.01674 ± 0.00059 kPa
[1], 278.15 K | – | 0.02561 ± 0.00074 kPa and 0.02562 ± 0.00074 kPa and 0.02563 ± 0.00074 kPa
[1], 283.15 K | – | 0.04036 ± 0.001 kPa and 0.04037 ± 0.001 kPa
[1], 288.15 K | – | 0.06241 ± 0.0014 kPa and 0.06244 ± 0.0014 kPa
[1], 293.15 K | – | 0.09491 ± 0.002 kPa and 0.09494 ± 0.002 kPa and 0.09496 ± 0.002 kPa
[1], 298.15 K | – | 0.142 ± 0.0025 kPa
[1], 303.15 K | – | 0.2089 ± 0.0033 kPa and 0.209 ± 0.0033 kPa
[1], 308.15 K | – | 0.3032 ± 0.0044 kPa and 0.3034 ± 0.0044 kPa
[2], 265 K | 206.7 ± 5.1 | –
[2], 270 K | 210.2 ± 5.1 | –
[2], 275 K | 213.9 ± 5.2 | –
[2], 280 K | 217.6 ± 5.3 | –
[2], 285 K | 221.4 ± 5.4 | –
[2], 290 K | 225.4 ± 5.5 | –
[2], 295 K | 229.7 ± 5.6 | –
[2], 300 K | 234 ± 5.7 | –
[2], 305 K | 238.2 ± 5.8 | –
[2], 310 K | 242.4 ± 5.9 | –
[2], 315 K | 246.7 ± 6 | –
[2], 320 K | 250.9 ± 6.1 | –
[2], 325 K | 255.2 ± 6.3 | –
[2], 330 K | 259.2 ± 6.3 | –
[2], 335 K | 263.1 ± 6.4 | –
[2], 340 K | 266.8 ± 6.5 | –
[2], 345 K | 270.8 ± 6.6 | –
[2], 350 K | 274.6 ± 6.7 | –
[2], 355 K | 277.8 ± 6.8 | –

CCCCCCO [hexan-1-ol]
[1]
Settings | vapor or sublimation pressure
237.95 K | 0.000143 ± 0.00013 kPa
238 K | 0.000143 ± 0.00013 kPa and 0.000145 ± 0.00013 kPa
243.2 K | 0.000296 ± 0.00013 kPa
243.25 K | 0.000293 ± 0.00013 kPa
248.2 K | 0.000569 ± 0.00014 kPa and 0.00056 ± 0.00014 kPa and 0.000564 ± 0.00014 kPa
253.15 K | 0.001054 ± 0.00015 kPa and 0.001051 ± 0.00015 kPa and 0.001057 ± 0.00015 kPa
258.15 K | 0.001918 ± 0.00016 kPa and 0.001915 ± 0.00016 kPa and 0.00192 ± 0.00016 kPa
263.15 K | 0.003393 ± 0.0002 kPa and 0.003385 ± 0.0002 kPa
268.15 K | 0.005838 ± 0.00028 kPa and 0.005843 ± 0.00028 kPa and 0.005839 ± 0.00028 kPa
273.15 K | 0.009866 ± 0.00042 kPa and 0.009857 ± 0.00042 kPa
273.65 K | 0.01039 ± 0.00044 kPa
278.15 K | 0.01629 ± 0.00058 kPa and 0.0163 ± 0.0006 kPa
283.15 K | 0.02639 ± 0.00076 kPa and 0.02642 ± 0.00076 kPa
288.15 K | 0.04189 ± 0.001 kPa and 0.0419 ± 0.001 kPa
293.15 K | 0.06536 ± 0.0014 kPa and 0.06537 ± 0.0014 kPa
298.15 K | 0.1001 ± 0.0021 kPa
303.15 K | 0.1505 ± 0.0026 kPa
308.15 K | 0.223 ± 0.004 kPa and 0.223 ± 0.0035 kPa and 0.2231 ± 0.0035 kPa
